According to patent US20250340538A1, “IMIDAZOLONE DERIVATIVES AS INHIBITORS OF PROTEIN KINASES IN PARTICULAR DYRK1A, CLK1 AND/OR CLK4” (PERHA PHARMACEUTICALS, priority 2021, published 2025):
Several values for one entry are separate records, joined by “and”; a condition that tells them apart may be missing. Equal entries are not always repeated. Where two headings read alike, the source gives them in different places.

Assays:
Assay type in all cases: biochemical
CLK1 = molecular target: T1, CLK1 (Homo sapiens, UniProt P49759); test: Radiometric protein kinase assay (33PanQinase Activity Assay), CLK1; details: read-out: Potency Class CLK1
T1 construct: GST-fusion or His-tag (not specified per kinase); purchased ProQinase GmbH; host or cells: Sf9 insect cells or E. coli (not specified per kinase)
In short: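 33P incorporation counted by microplate scintillation after H3PO4 stop and NaCl washes; IC50 fitted from dose-response curves. Reactions of kinase/substrate, [γ-33P]-ATP and compound ran 60 min at 30 °C, 1% DMSO final, 10 concentrations (10 μM–30 nM).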

DYRK3 = molecular target: T2, DYRK3 (Homo sapiens, UniProt O43781); test: Radiometric protein kinase assay (33PanQinase Activity Assay), DYRK3; details: read-out: IC50 on DYRK3 (most potent DYRK3 inhibitors)
T2 construct: GST-fusion or His-tag (not specified per kinase); purchased ProQinase GmbH; host or cells: Sf9 insect cells or E. coli (not specified per kinase)
T2 sequence (O43781 1-588): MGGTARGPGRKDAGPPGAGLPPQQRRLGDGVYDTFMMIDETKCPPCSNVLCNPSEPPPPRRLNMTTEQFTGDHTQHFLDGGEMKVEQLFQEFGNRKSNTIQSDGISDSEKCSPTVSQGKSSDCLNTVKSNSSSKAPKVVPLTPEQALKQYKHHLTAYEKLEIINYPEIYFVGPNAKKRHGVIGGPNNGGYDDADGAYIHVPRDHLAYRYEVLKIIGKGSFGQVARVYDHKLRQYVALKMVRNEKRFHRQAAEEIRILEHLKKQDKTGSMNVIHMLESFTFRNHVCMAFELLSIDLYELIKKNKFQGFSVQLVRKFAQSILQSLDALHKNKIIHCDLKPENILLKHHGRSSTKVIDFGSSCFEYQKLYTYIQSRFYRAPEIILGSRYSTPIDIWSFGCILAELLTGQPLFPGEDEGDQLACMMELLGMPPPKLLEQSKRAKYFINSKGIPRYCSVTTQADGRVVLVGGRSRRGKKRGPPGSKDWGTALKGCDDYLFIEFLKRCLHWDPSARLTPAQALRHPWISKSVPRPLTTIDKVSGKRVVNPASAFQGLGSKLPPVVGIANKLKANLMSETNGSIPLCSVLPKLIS
Protocol: (§1) Assays were performed by ProQinase GmbH (Engesserstr. 4, D-79108 Freiburg, Germany. www.proqinase.com). The IC50 profile of all compounds was determined using 12 protein kinases (CDK2/cyclin E, CK1ε, CLK1, 2, 3, 4, DYRK1A, 1B, 2, 3, 4, GSK3β).
(§2) The compounds were provided as […] in 100% DMSO. Prior to testing, the 1 μM stock solutions were subjected to a serial, semi-logarithmic dilution using 100% DMSO as a solvent. […] In the process, 90 μl H2O were added to each well of each compound dilution plate. To minimize potential precipitation, the H2O was added to each plate only a few minutes before the transfer of the compound solutions into the assay plates. The plate was shaken thoroughly, resulting in a compound dilution plate/10% DMSO.
(§3) For the assays (see below), 5 μL solution from each well of the compound dilution plates/10% DMSO were transferred into the assay plates. The final volume of the assay was 50 μL. All compounds were tested at 10 final assay concentrations in the range from 10 μM to 30 nM. The final DMSO concentration in the reaction cocktails was 1% in all cases.
(§4) All protein kinases provided by ProQinase were expressed in Sf9 insect cells or in E. coli as recombinant GST-fusion proteins or His-tagged proteins, either as full-length or enzymatically active fragments. All kinases were produced from human cDNAs and purified by either GSH-affinity chromatography or immobilized metal. Affinity tags were removed from a number of kinases during purification. The purity of the protein kinases was examined by SDS-PAGE/Coomassie staining, the identity was checked by mass spectroscopy.
(§5) A radiometric protein kinase assay (33PanQinase® Activity Assay) was used for measuring the kinase activity of the 12 protein kinases. All kinase assays were performed in 96-well FlashPlates™ from PerkinElmer (Boston, MA, USA) in a 50 μL reaction volume. The reaction cocktail was pipetted in four steps in the following order: • 25 μL of assay buffer (standard buffer/[γ-^33P]-ATP), • 10 μL of ATP solution (in H2O), • 5 μL of test compound (in 10% DMSO), • 10 μL of enzyme/substrate mixture.
(§6) The reaction cocktails were incubated at 30° C. for 60 minutes. The reaction was stopped with 50 μL of 2% (v/v) H3PO4, plates were aspirated and washed two times with 200 μL 0.9% (w/v) NaCl. Incorporation of ^33Pi was determined with a microplate scintillation counter (Microbeta, Wallac). The IC50 values for all compounds were calculated from the dose response curves
(§7) As a parameter for assay quality, the Z′-factor (Zhang et al., J. Biomol. Screen. 2: 67-73, 1999) for the low and high controls of each assay plate (n=8) was used. ProQinase's criterion for repetition of an assay plate is a Z′-factor below 0.4 (Iversen et al., J. Biomol. Screen. 3: 247-252, 2006).

CLK2 = molecular target: T3, CLK2 (Homo sapiens, UniProt P49760); test: Radiometric protein kinase assay (33PanQinase Activity Assay), CLK2; details: read-out: IC50 on CLK2 (most potent CLK2 inhibitors)
T3 construct: GST-fusion or His-tag (not specified per kinase); purchased ProQinase GmbH; host or cells: Sf9 insect cells or E. coli (not specified per kinase)
Protocol: as §1, §2, §3, §4, §5, §6, §7

DYRK1A = molecular target: T4, DYRK1A (Homo sapiens, UniProt Q13627); test: Radiometric protein kinase assay (33PanQinase Activity Assay), DYRK1A; details: for Selectivity Class DYRK1A vs. CLK1: ratio of IC50 on CLK1 over IC50 on DYRK1A; for Selectivity Class DYRK1A vs. DYRK1B: ratio of IC50 on DYRK1B over IC50 on DYRK1A
T4 construct: GST-fusion or His-tag (not specified per kinase); purchased ProQinase GmbH; host or cells: Sf9 insect cells or E. coli (not specified per kinase)
In short: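 Recombinant human kinase, expressed in Sf9 or E. coli, in a radiometric [γ-33P]-ATP assay at 30 °C for 60 min. Compounds tested at 10 concentrations from 10 μM to 30 nM, 1% DMSO final. 33Pi incorporation measured by scintillation counting; IC50 from dose-response curves.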

DYRK2 = molecular target: T5, DYRK2 (Homo sapiens, UniProt Q92630); test: Radiometric protein kinase assay (33PanQinase Activity Assay), DYRK2; details: read-out: IC50 on DYRK2 (most potent DYRK2 inhibitors)
T5 construct: GST-fusion or His-tag (not specified per kinase); purchased ProQinase GmbH; host or cells: Sf9 insect cells or E. coli (not specified per kinase)
T5 sequence (Q92630 1-601): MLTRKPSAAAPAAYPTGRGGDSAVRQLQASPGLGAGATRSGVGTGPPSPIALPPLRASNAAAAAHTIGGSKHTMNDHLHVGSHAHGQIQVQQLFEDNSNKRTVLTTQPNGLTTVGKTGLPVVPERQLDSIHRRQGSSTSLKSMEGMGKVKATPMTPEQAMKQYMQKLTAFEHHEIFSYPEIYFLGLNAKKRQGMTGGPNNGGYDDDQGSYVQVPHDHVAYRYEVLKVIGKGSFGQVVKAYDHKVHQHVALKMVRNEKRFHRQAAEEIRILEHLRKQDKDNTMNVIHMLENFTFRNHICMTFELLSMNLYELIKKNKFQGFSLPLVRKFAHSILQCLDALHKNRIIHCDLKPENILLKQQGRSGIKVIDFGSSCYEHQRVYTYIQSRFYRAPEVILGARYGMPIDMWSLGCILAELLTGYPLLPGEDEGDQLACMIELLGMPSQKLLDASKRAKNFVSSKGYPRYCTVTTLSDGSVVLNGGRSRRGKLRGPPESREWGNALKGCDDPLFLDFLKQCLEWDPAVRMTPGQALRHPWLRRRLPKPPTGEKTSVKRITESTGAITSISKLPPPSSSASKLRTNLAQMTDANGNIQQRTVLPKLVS
Protocol: as §1, §2, §3, §4, §5, §6, §7

DYRK1B = molecular target: T6, DYRK1B (Homo sapiens, UniProt Q9Y463); test: Radiometric protein kinase assay (33PanQinase Activity Assay), DYRK1B; details: read-out: IC50 on DYRK1B (most potent DYRK1B inhibitors)
T6 construct: GST-fusion or His-tag (not specified per kinase); purchased ProQinase GmbH; host or cells: Sf9 insect cells or E. coli (not specified per kinase)
Protocol: as §1, §2, §3, §4, §5, §6, §7

CLK4 = molecular target: T7, CLK4 (Homo sapiens, UniProt Q9HAZ1); test: Radiometric protein kinase assay (33PanQinase Activity Assay), CLK4; details: read-out: IC50 on CLK4 (most potent CLK4 inhibitors)
T7 construct: GST-fusion or His-tag (not specified per kinase); purchased ProQinase GmbH; host or cells: Sf9 insect cells or E. coli (not specified per kinase)
Protocol: as §1, §2, §3, §4, §5, §6, §7

CLK3 = molecular target: T8, CLK3 (Homo sapiens, UniProt P49761); test: Radiometric protein kinase assay (33PanQinase Activity Assay), CLK3; details: read-out: IC50 on CLK3 (most potent CLK3 inhibitors)
T8 construct: GST-fusion or His-tag (not specified per kinase); purchased ProQinase GmbH; host or cells: Sf9 insect cells or E. coli (not specified per kinase)
Protocol: as §1, §2, §3, §4, §5, §6, §7

[1] = class by IC50 on CLK1, from dose-response curves
[2] = IC50 class A to E, read-out: Potency Class DYRK1A
[3] = class by IC50 on DYRK1A, from dose-response curves, read-out: Potency Class DYRK1A
[4] = read-out: IC50 on DYRK1A (most potent DYRK1A inhibitors)

T1 sequence (P49759 whole entry, the tested form may be a part): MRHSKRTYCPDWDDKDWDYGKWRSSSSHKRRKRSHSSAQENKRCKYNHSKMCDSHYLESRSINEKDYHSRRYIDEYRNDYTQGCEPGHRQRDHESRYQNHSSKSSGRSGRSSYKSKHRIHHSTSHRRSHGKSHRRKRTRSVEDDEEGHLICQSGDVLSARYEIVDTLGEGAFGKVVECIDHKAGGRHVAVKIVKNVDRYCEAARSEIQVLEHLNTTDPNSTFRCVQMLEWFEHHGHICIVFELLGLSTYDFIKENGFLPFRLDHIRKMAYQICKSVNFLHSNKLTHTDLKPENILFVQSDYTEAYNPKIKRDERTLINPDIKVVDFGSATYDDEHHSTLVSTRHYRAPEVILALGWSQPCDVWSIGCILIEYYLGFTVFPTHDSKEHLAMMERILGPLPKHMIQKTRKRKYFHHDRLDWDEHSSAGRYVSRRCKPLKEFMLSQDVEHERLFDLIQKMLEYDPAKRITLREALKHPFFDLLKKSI
T3 sequence (P49760 whole entry, the tested form may be a part): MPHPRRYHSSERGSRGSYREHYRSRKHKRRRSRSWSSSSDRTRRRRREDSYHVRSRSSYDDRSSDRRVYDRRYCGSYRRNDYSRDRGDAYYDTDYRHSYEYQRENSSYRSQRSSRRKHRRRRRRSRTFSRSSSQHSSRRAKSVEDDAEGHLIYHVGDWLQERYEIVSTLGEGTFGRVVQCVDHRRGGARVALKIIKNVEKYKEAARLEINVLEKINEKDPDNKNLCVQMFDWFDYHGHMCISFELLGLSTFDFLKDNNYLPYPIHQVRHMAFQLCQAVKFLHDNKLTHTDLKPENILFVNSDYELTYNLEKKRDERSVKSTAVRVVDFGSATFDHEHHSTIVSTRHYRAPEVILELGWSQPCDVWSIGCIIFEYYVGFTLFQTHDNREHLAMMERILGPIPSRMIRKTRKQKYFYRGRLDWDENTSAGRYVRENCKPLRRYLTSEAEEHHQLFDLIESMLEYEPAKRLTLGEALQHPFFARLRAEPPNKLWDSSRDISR
T7 sequence (Q9HAZ1 whole entry, the tested form may be a part): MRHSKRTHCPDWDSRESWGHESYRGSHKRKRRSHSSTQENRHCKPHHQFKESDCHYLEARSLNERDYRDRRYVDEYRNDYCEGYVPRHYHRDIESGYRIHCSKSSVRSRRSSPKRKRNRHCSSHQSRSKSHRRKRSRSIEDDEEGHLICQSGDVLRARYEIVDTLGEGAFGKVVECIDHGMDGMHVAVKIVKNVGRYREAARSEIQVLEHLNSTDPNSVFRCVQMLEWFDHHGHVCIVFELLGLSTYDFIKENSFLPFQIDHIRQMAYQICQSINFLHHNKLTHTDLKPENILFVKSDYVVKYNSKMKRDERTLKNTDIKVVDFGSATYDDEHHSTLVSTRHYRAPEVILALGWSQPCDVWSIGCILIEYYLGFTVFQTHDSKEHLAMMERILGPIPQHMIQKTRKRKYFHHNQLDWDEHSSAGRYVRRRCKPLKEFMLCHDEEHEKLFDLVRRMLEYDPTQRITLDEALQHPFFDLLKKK
T6 sequence (Q9Y463 whole entry, the tested form may be a part): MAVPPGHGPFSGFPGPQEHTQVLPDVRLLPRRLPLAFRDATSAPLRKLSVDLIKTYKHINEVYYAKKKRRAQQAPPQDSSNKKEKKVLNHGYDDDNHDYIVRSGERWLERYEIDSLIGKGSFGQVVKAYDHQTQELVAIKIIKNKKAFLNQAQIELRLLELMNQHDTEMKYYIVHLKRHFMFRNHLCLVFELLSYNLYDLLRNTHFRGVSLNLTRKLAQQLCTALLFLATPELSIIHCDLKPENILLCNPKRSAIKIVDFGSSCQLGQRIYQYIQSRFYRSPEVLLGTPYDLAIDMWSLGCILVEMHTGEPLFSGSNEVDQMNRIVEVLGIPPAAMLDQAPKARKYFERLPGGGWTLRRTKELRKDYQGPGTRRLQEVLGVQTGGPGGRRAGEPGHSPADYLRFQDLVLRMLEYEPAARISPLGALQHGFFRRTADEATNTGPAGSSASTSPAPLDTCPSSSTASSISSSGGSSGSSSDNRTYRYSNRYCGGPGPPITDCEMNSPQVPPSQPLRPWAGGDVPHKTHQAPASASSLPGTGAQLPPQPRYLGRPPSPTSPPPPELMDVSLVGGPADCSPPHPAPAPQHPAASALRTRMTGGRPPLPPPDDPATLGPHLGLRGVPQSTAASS
T8 sequence (P49761 whole entry, the tested form may be a part): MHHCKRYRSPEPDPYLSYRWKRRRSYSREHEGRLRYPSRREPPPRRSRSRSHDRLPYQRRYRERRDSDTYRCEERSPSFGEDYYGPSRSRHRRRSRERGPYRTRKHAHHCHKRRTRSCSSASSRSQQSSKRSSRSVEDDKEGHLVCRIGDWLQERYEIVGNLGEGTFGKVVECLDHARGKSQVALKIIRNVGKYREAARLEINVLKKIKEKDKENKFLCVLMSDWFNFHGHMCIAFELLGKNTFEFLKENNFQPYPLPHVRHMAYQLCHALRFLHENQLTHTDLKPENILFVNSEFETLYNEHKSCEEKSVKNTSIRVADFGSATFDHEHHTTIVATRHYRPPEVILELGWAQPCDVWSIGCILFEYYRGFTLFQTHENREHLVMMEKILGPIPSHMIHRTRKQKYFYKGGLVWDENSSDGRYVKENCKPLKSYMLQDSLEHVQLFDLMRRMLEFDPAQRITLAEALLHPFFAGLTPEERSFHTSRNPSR

Row | SMILES | IC50 (CLK1; IC50 class A to E) | IC50 (CLK1; [1]) | IC50 (DYRK3) | IC50 (CLK2) | IC50 (DYRK1A; [2]) | IC50 (DYRK1A; [3]) | Selectivity Class DYRK1A vs. CLK1 (DYRK1A) | Selectivity Class DYRK1A vs. DYRK1B (DYRK1A) | IC50 (DYRK1A; [4]) | IC50 (DYRK2) | IC50 (DYRK1B) | IC50 (CLK4) | IC50 (CLK3)
1 | O=C1NC(NC23CC4CC(CC(C4)C2)C3)=N/C1=C\c1ccc2cnccc2c1 [Compound 61, (4Z)-2-(1-adamantylamino)-4-(6-isoquinolylmethylene)-1H-imidazol-5-one] |  | 0.025 to 0.05 µM | ≤ 0.25 µM | ≤ 0.1 µM |  | 0.025 to 0.05 µM | III (ratio between 0.5 and 2 fold) | III (ratio between 0.5 and 2 fold) |  |  |  |  | 
2 | O=C1NC(NC2CCCCCC2)=N/C1=C\c1ccc2ncccc2n1 [Compound 80, (4Z)-2-(cycloheptylamino)-4-(1,5-naphthyridin-2-ylmethylene)-1H-imidazol-5-one] |  | 0.025 to 0.05 µM |  |  |  | 0.01 to 0.025 µM | III (ratio between 0.5 and 2 fold) | II (ratio between 2 and 10 fold) |  |  |  |  | ≤ 0.5 µM
3 | CN1C(=O)/C(=C/c2ccc3cnccc3c2)N=C1NC1CCCCCC1 [Compound 87, (5Z)-2-(Cycloheptylamino)-3-methyl-5-(isoquinolin-6-ylmethylene)imidazol-4-one] |  | > 0.05 µM | ≤ 0.25 µM |  |  | > 0.05 µM | IV (ratio between 0.1 and 0.5 fold) | IV (ratio between 0.1 and 0.5 fold) |  | ≤ 0.25 µM |  |  | 

Other lines, results leading:

Row | IC50 (CLK1; IC50 class A to E) | IC50 (CLK1; [1]) | IC50 (DYRK3) | IC50 (CLK2) | IC50 (DYRK1A; [2]) | IC50 (DYRK1A; [3]) | Selectivity Class DYRK1A vs. CLK1 (DYRK1A) | Selectivity Class DYRK1A vs. DYRK1B (DYRK1A) | IC50 (DYRK1A; [4]) | IC50 (DYRK2) | IC50 (DYRK1B) | IC50 (CLK4) | IC50 (CLK3) | SMILES
4 | 0.01 to 0.025 µM | 0.01 to 0.025 µM | ≤ 0.25 µM | ≤ 0.1 µM | 0.01 to 0.025 µM and 0.005 to 0.01 µM | 0.01 to 0.025 µM | II (ratio between 2 and 10 fold) | III (ratio between 0.5 and 2 fold) | ≤ 0.01 µM |  |  |  |  | O=C1NC(NC23CC4CC(CC(C4)C2)C3)=N/C1=C\c1ccc2ncccc2c1 [Compound 49, (4Z)-2-(1-adamantylamino)-4-(6-quinolylmethylene)-1H-imidazol-5-one]
5 | 0.01 to 0.025 µM | 0.01 to 0.025 µM | ≤ 0.25 µM | ≤ 0.1 µM | ≤ 0.005 µM | < 0.005 µM | II (ratio between 2 and 10 fold) | II (ratio between 2 and 10 fold) | ≤ 0.01 µM | ≤ 0.25 µM | ≤ 0.01 µM | ≤ 0.01 µM |  | COC[C@H](NC1=N/C(=C\c2ccc3ncncc3c2)C(=O)N1)c1ccccc1 [Compound 69, (4Z)-2-[[(1R)-2-methoxy-1-phenyl-ethyl]amino]-4-(quinazolin-6-ylmethylene)-1H-imidazol-5-one]
